{"source": "patent US20120029083A1", "about": "“POLYMORPHIC FORMS OF ALISKIREN HEMIFUMARATE AND PROCESS FOR PREPARATION THEREOF” (Teva Pharmaceutical Industries, Ltd., priority 2007, published 2012)", "conditions": "pressed at 2 tons for 1 minute", "protocol": "ARL X-ray powder diffractometer model X′TRA-030, Peltier detector, round standard aluminum sample holder with round zero background quartz plate (or silicon plate in the case of Form XIV) was used. The cathode is CuKα radiation, λ=1.5418 Å. Scanning parameters: Range: 2-40°2θ, continuous Scan, Rate: 3 deg/min. The accuracy of peak positions is defined as +/−0.2° due to experimental differences like instrumentations, and sample preparations.\nThe formulation was mixed and pressed to a tablet. The applied pressure was 2 tons for 1 minute.\nThe formulation is mixed and pressed to a tablet. The applied pressure is 2 tons for 1 minute.", "note": "Read-outs that look alike come from different tables or passages of the source."}
{"smiles": "COCCCOc1cc(C[C@@H](C[C@H](N)[C@@H](O)C[C@H](C(=O)NCC(C)(C)C(N)=O)C(C)C)C(C)C)ccc1OC.COCCCOc1cc(C[C@@H](C[C@H](N)[C@@H](O)C[C@H](C(=O)NCC(C)(C)C(N)=O)C(C)C)C(C)C)ccc1OC.O=C(O)/C=C/C(=O)O", "note": "[amorphous aliskiren hemifumarate, (2S,4S,5S,7S)-N-(2-Carbamoyl-2-methylpropyl)-5-amino-4-hydroxy-2,7-diisopropyl-8-[4-methoxy-3-(3-methoxypropoxy)phenyl]-octanamide hemifumarate]", "values": [{"measurement": "conversion of amorphous form to a crystalline phase in pressed tablet (XRPD)", "setting": "formulation Example 67 (microcrystalline cellulose, PVP, crosspovidone, aerosil 200, Mg stearate)", "result": "No conversion of the amorphous Aliskiren to a crystalline phase"}, {"measurement": "conversion of amorphous form to a crystalline phase in pressed tablet (XRPD)", "setting": "formulation Example 68 (lactose monohydrate, PVP, crosspovidone, Mg stearate), written in present tense", "result": "No conversion of the amorphous Aliskiren to a crystalline phase"}]}
